Data as given in patent US10835500B2, “Medicament for accelerated wound healing” (Symrise AG, priority 2014, dated 2020).

Assays:
ERK1/2 MAPK = experiment: Western Blot, phosphorylation of ERK1/2 MAPK in HaCaT cells; type: cell-based, human; settings: inhibitor 10 μM, Sandalore 500 μM
Experimental: (§1) In the following, an investigation was to be conducted to determine whether a MAPK signalling pathway is activated by Sandalore® stimulation in skin cells, and if so, which pathway is involved. For detection, HaCaT cells were stimulated for 0-30 min with 500 μM of Sandalore®, and the proteins were then isolated and used in Western Blot assays.
In order to reveal a possible interaction of the two MAPK signalling pathways, ERK1/2 phosphorylation in the presence of the p38 MAPK inhibitor SB203580 and p38 MAPK phosphorylation in the presence of the ERK1/2 MAPK inhibitor U0126 were investigated. Phosphorylation was increased for both kinases in the presence of the respective inhibitors compared to the cells stimulated with Sandalore® only. This effect was significant for p38 MAPK (FIG. 17c).
(§2) Effect of Sandalore® stimulation on phosphorylation of MAP kinases in skin cells. A) Western Blot for investigating the phosphorylation of the MAP kinases in HaCaT cells stimulated for 0, 5, 15 and 30 min with Sandalore®(500 μM). In order to confirm uniform protein volume, ▪-tubulin was used as a control. ERK1/2: 42/44 kDa; p38: 43 kDa; JNK/SAPK: 46/54 kDA; ▪-tubulin: 52 kDa. B) Quantitative evaluation of p38 and ERK1/2 phosphorylation of HaCaT cells stimulated for 30 min with Sandalore®(500 μM) or additionally with the p38 inhibitor 5B203580 (10 μM) or ERK1/2 inhibitor U0126 (10 μM). For evaluation, the ratio of the phosphorylated (p) and unphosphorylated proteins was established and compared to that of untreated cells. Mean values including standard error. Mann-Whitney U test. *: p<0.05; ***: p<0.001. In C), the inhibitors of the respective other MAP kinase were used, and phosphorylation was compared to the cells stimulated with Sandalore® (500 μM) alone. Mean values including standard error. Mann-Whitney U test. *: p<0.05. The Western Blot analyses were carried out with three different protein isolations.

p38 MAPK = experiment: Western Blot, phosphorylation of p38 MAPK in HaCaT cells; type: cell-based, human; settings: inhibitor 10 μM, Sandalore 500 μM
Experimental: as §1
In order to reveal a possible interaction of the two MAPK signalling pathways, ERK1/2 phosphorylation in the presence of the p38 MAPK inhibitor SB203580 and p38 MAPK phosphorylation in the presence of the ERK1/2 MAPK inhibitor U0126 were investigated.
as §2, with “A)” for “Effect of Sandalore® stimulation on phosphorylation of MAP kinases in skin cells. A)”, “In order to confirm uniform protein volume, ▪-tubulin was used as a control.” left out

HaCaT cells = experiment: In vitro wound scratch assay, HaCaT cells; type: cell-based, human; settings: HaCaT; for Sandalore-increased wound healing on coincubation: 48 hours, Sandalore 500 μM + antagonist 500 μM or inhibitor 10 μM; for effect of the substance alone on wound healing: antagonist 500 μM or inhibitor 10 μM alone
Source text: The MAP kinases p38 and ERK1/2 are often associated with increased proliferation and migration in epidermal wound healing. For this reason, in a further physiological experiment, the effect of Sandalore® on “wound healing” of a confluent cell layer of HaCaT cells or primary keratinocytes was investigated. For this purpose, the wound scratch assay was used, which is an established in vitro method for initial investigations of wound healing processes in keratinocytes.
In order to investigate the role of the OR2AT4 receptor in this effect, a test was conducted to determine whether the two antagonists Oxyphenylon and Phenirat could again reduce the “wound healing” increased by Sandalore®. For this purpose, Sandalore® was mixed with one of the antagonists each in the same ratio, and the effect on “wound healing” of the HaCaT cells was again observed for 48 hours. […] The two antagonists alone had no effect on the “wound healing” (FIG. 18d). The role of the MAP kinases p38 and ERK1/2 was investigated by means of specific inhibitors of the kinases. For p38 MAPK, the […] SB203580 was used, and for ERK1/2 MAPK, the […] U0126 was used. […] The two inhibitors alone had no effect on the wound healing (FIG. 18d).
Effect of Sandalore® stimulation on human keratinocytes in an in vitro “wound healing” assay. Investigation of the “wound healing rate” of A) primary keratinocytes and B) HaCaT cells by means of a wound scratch assay in the presence of Sandalore® (500 μM) or 0.1% DMSO as a control. Left: Transmitted light images of the “wound” observed at various times. The growth margin of the cells was surrounded in black. Scale: 200 μm. Right: Quantitative evaluation of the wound scratch assay. The areas of the wounds were measured and compared to the initial wound (0 h). Mean values including standard error. Mann-Whitney U test; n=4 experiments. *: p<0.05; ***: p<0.001. C) Wound scratch assay in the presence of Sandalore® (500 μM) and one of the antagonists Oxyphenylon (500 μM) or Phenirat (500 μM) respectively, the p38 MAPK inhibitor 5B203580 (10 μM), or the ERK1/2 MAPK inhibitor U0126 (10 μM). The measured wound areas of the treated cells (after 48-hour stimulation) were compared to the control (0.1% DMSO). Mean values including standard error. Kruskal-Wallis test with multiple comparison; n=3 experiments. *: p<0.05. D) Controls for the wound scratch assay with Oxyphenylon (500 μM), Phenirat (500 μM), 5B203580 (10 μM), or U0126 (10 μM) carried out under C). The measured wound areas of the treated cells were compared to the control (0.1% DMSO). Mean value included.

[1] = molecular target: T1, recombinantly expressed OR2AT4 (Homo sapiens, UniProt A6NND4); experiment: Calcium imaging of transiently OR2AT4-transfected Hana3A cells; type: cell-based; settings: 1 mM odorant, 20 s stimulation, OR2AT4-transfected Hana3A cells
T1 construct: expressed in transfected cells; host or cells: Hana3A cells, transient transfection with pcDNA3-OR2AT4 by the calcium phosphate method
T1 sequence (A6NND4 1-320): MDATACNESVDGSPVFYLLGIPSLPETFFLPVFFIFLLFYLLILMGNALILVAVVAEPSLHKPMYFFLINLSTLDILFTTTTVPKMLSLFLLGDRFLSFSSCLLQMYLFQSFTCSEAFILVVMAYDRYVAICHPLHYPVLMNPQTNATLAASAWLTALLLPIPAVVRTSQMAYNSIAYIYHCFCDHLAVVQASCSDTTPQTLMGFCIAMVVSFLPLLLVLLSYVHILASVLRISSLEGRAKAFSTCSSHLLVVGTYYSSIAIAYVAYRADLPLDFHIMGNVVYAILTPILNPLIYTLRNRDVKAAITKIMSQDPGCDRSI
Experimental: Hana3A cells expressing stable endogenous olfactory transduction factors, which specifically target the incorporation of ORs into the cell membrane and thus improve activation capacity, were used as a heterologous expression system. Moreover, the 20 first N-terminal amino acids of rhodopsins (Rho-tag) were added before the N-terminus of the coding sequence of the OR, also in order to support heterologous expression.
A method established at the Department of Cell Physiology of Ruhr University Bochum for deorphanization studies is calcium imaging, in which activation of an OR by an odorant is visualized by a change in the intracellular calcium concentration of transfected cells using a fluorescent dye [cf. Wetzel et al. in: J. Neurosci. 19, pp. 7426-7433 (1999); Spehr et al. in: Science 299, pp. 2054-2058 (2003); Neuhaus et al. in: J. Biol. Chem. 284, pp. 16218-16225 (2009)]. In this method, the Hana3A cells are briefly (20 s) stimulated with an odorant and selected for odorant screenings of high concentrations (up to 1 mM) in order to confirm activation of ORs weakly expressed in Hana3A cells.
The activation of OR2AT4 by Sandalore® was first investigated by the calcium imaging method.
Odorants can not only activate a receptor, but can also act as antagonists to an OR.
(§3) Determination of receptive field of recombinantly expressed OR2AT4. […] As a control, untransfected Hana3A cells were simulated with Sandalore®. 100 μM of ATP was used at the end of each measurement as a positive control stimulus. […] The mean response rate including standard error of the cells is shown relative to the Ringer control. […] Isobornyl.: isobornyl cyclohexanol; S. öl: sandalwood oil. Kruskal-Wallis test with multiple comparison. *: p<0.05. […] Significance was determined between Hana3A cells transfected with OR2AT4-pcDNA3 and pcDNA3 without an insert. The dots show mean normalized luciferase-activity including standard error. Mann-Whitney U test; n=3 experiments. *: p<0.05; **: p<0.01; ***: p<0.001.
Antagonists of recombinantly expressed OR2AT4. […] 100 μM of ATP was used at the end of each measurement as a positive control stimulus. […] The mean response rate including standard error of the cells is shown relative to the Ringer control. Number of measurements: Ringer (23), Sandalore® (22), Sandalore®+dimetol (11), dimetol (11), Phenirat (14), Sandalore®+Phenirat (22), Oxyphenylon (12), and Sandalore®+Oxyphenylon (20). S: Sandalore®. Kruskal-Wallis test with multiple comparison. *: p<0.05.

[2] = molecular target: T1, recombinantly expressed OR2AT4; experiment: CRE dual luciferase assay in OR2AT4-transfected Hana3A cells; type: cell-based; settings: for activation of OR2AT4 in the luciferase assay: up to the highest useable concentrations 10-25 μM
Source text: In order to verify calcium imaging results and investigate dose-dependent activation of OR2AT4, a further method of deorphanization based on a dual luciferase system was used. In this method, in addition to the OR, two luciferases were introduced into the Hana3A cells. When the expressed OR is activated by an odorant and cAMP is formed in the further course of the signal cascade, this initiates expression of firefly luciferase via CRE (cAMP response elements). The second luciferase, Renilla luciferase, serves as a control for transfection and vitality of the cells. By calculating the two luciferase values, the activation capacity of an OR by an odorant can be determined. In the CRE luciferase assay, the odorant remains on the cells for hours in order to ensure that the luciferase is expressed. Because of the longer incubation time of the odorants and the possibility of activating more receptors in a 96-well format, this method is more sensitive than calcium imaging and is well-suited for establishing dose-response relationships.
For Brahmanol, however, a higher concentration (≥75 μM) was required than for Sandalore® (≥25 μM) in order to produce a significant effect at the receptor (FIG. 3c).
as §3

Row | Molecule | Sandalore-increased wound healing on coincubation (HaCaT cells) | effect of the substance alone on wound healing (HaCaT cells) | response rate of the Hana3A cells relative to the Ringer control [1] | activation of OR2AT4 in the luciferase assay [2] | further results
1 | C[S+]([O-])c1ccc(-c2nc(-c3ccncc3)c(-c3ccc(F)cc3)[nH]2)cc1 (centres unmarked) [SB203580] | again reduced to the normal level | no effect | – | – | ERK1/2 phosphorylation in the presence of the p38 MAPK inhibitor compared to Sandalore only (ERK1/2 MAPK): increased; Sandalore-induced p38 MAPK phosphorylation with p38 inhibitor (p38 MAPK; 30 min): significantly reduced
2 | CC/C(=C\CC1CC=C(C)C1(C)C)CO (centres unmarked) [Sandranol] | – | – | only Brahmanol showed an increased response rate | – | reaction in the CRE luciferase assay ([2]; at the investigated concentration (≥50 μM)): no reaction
3 | N#CC(=C(/N)Sc1ccccc1N)/C(C#N)=C(\N)Sc1ccccc1N [U0126] | again reduced to the normal level | no effect | – | – | Sandalore-induced ERK1/2 MAPK phosphorylation with ERK1/2 inhibitor (ERK1/2 MAPK; 30 min): significantly reduced; increase of p38 MAPK phosphorylation in the presence of the ERK1/2 MAPK inhibitor compared to Sandalore only (p38 MAPK): significant
4 | isobornyl cyclohexanol | – | – | only Brahmanol showed an increased response rate | no increased activation of OR2AT4 | –
5 | CC1=CCC(C=CC(C)(C)C(C)O)C1(C)C (centres unmarked) [Polysantol] | – | – | only Brahmanol showed an increased response rate | no increased activation of OR2AT4 | –
